What was measured:
[1] = cited from earlier work; for PTH / hormonal activity compared with natural h-PTH: prior art, Jap. Pat. Unexam. Publ. No. 55-113753
PTH receptor = target: T1, PTH receptor (Rattus norvegicus, UniProt P25961); assay: Assay of PTH activity: c-AMP generated on reaction with rat renal cortex PTH receptor preparation, parallel line assay against standard bovine PTH(1-34); assay type: biochemical; details: for h-PTH activity, times stronger than known h-PTH(1-34) and [Nle8, Nle18]-h-PTH(1-34): compared with h-PTH(1-34) and [Nle8, Nle18]-h-PTH(1-34); for PTH Activity: unlabelled sample, vs standard bovine PTH(1-34); for PTH Activity / PTH Activity After Labelling with 125I: rat renal cortex PTH receptor, c-AMP generation; for PTH Activity After Labelling with 125I: after labelling with iodine-125 (chloramine T)
T1 construct: A surface membrane was removed, and the renal cortex carved out and ice-cooled; from tissue; host or cells: rat (SD, male) renal cortex, crude membrane fraction (2200 x g precipitate)
T1 sequence (P25961 27-591): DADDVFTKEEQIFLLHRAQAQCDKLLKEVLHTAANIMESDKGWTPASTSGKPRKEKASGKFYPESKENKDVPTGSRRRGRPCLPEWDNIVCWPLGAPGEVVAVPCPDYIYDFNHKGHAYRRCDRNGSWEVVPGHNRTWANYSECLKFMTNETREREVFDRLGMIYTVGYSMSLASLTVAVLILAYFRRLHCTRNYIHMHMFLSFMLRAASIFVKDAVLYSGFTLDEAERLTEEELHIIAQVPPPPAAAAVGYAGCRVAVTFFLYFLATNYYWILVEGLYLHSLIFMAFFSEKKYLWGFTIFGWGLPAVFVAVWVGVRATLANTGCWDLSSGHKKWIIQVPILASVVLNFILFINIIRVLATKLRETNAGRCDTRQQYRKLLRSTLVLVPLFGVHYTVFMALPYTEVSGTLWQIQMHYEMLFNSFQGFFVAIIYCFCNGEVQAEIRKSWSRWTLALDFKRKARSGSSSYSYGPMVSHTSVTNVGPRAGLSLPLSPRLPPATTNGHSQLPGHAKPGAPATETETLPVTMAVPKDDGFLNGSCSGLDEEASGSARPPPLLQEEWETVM
Experimental: (1) Preparation of PTH receptor:
Rats, strain SD, male, weight 200-250 g, were decollated to bleed, laparotomized and excised of kidneys. A surface membrane was removed, and the renal cortex carved out and ice-cooled. The following operations should be carried out at a temperature as low as possible (0°-4° C.).
The renal cortex was immersed in a solution (hereinafter designated as solution A) of 10 mM Tris-HCl buffer (pH 7.5) containing 0.25 M sucrose and lmM EDTA. Three times the volume of solution A (ml) suspending the renal cortex (wet weight) was added to a renal cortex in a glass tube with Tefron (trade name) pestle and homogenized.
A homogenate was centrifuged for 10 minutes at 150×g, and the supernatant solution was further centrifuged for 15 mins. at 2200×g. The supernatant solution was discarded and the upper emulsion part of precipitate was suspended in a solution A. The said emulsion was centrifuged for 15 mins. at 2200×g. The precipitate was again suspended and frozen at -70° C. in a bottle stored at -20° C.
(2) Reaction with PTH and PTH-receptor:
Specimen was dissolved in 100 mM Tris-HCl buffer (ph 7.5) containing ATP-Mg 2 mM, MgCl2 10 mM, KCl 60 mM, GTP 20 μM, isobutyl methyl xanthine 1 mM, creatine phosphate 8 mM and bovine serum albumin (BSA) 0.2% to prepare 2 μg/ml and 10 μg/ml solutions. Standard bovine PTH(1-34) solution was also prepared in the same manner.
The above solutions [2 μg/ml and 10 μg/ml specimen] and bovine PTH(1-34) (50 μl) were each divided among eight glass test tubes, and kept in ice water in order to prevent ATP […] and to prepare test solutions. A stock solution of PTH receptor stored at -20° C. was thawed to room temperature. Creatine kinase, previously dissolved in solution A, was added thereto to prepare creatine kinase at 0.1 mg/ml and PTH receptor at 1.4 mg/ml as protein by adding solution A while keeping the solution in ice cooling. After the above test solutions were preincubated at 37° C. for several minutes, the PTH receptor-creatine kinase solution (each 50 μl) was added therein and incubated at 37° C. for 10 mins. 0.1 M acetate buffer (pH 4.0, 100 μl) was added, the mixture immediately placed in ice-water, and the tube heated in boiling water for one minute to stop the reaction.
(3) Assay of generated c-AMP:
Distilled water was added to the above reaction-stopped solution to 10-30 times dilution, and deproteinized by centrifugation for 15 mins. at 2000×g. An amount of c-AMP in a supernatant solution was assayed by RIA-kit (YASAMA SHOYU CO.)
(4) Determination of PTH activity:
The measured values of c-AMP hereinabove were converted to a unit of pM (pico mole)/mg PTH receptor-protein/minute as a designation of measured value. The measured value of the specimen was compared to the standard substance according to a parallel assay line two by two.

PTH receptors = assay: Affinity for PTH receptors (statement, no method given); assay type: binding; details: in words

| Substance | PTH Activity (PTH receptor) [U/mg] | PTH Activity After Labelling with 125I (PTH receptor) [U/mg] | other results |
| --- | --- | --- | --- |
| [Nle^8, Nle^18 ]-h-PTH(1-34) |  |  | PTH / hormonal activity compared with natural h-PTH [1]: approximately equal to but no more than that of natural h-PTH |
| h-PTH(1-34) (SVSEIQLMHNLGKHLNSMERVEWLRKKLQDVHNF; Parathyroid hormone; UniProt P01270 32-65, looked up, fragment) [34-amino acid N-terminal fragment of human parathyroid hormone] |  |  | hormonal activity when labelled with iodine-125 ([1]; methionine at position-8 and -18 is oxidized): loses hormonal activity |
| h-PTH(1-34)NH2 | 5100 | > 150 |  |
| h-PTH: sample of the activity table; human parathyroid hormone, probably the h-PTH(1-34) fragment labelled in b29 | 3000 | > 100 |  |

Continued, in another order:

| PTH Activity (PTH receptor) [U/mg] | PTH Activity After Labelling with 125I (PTH receptor) [U/mg] | Substance | other results |
| --- | --- | --- | --- |
| 5000 |  | [Nle^8, Nle^18, Phe^34 ]-h-PTH(1-34)NH2 | h-PTH activity, times stronger than known h-PTH(1-34) and [Nle8, Nle18]-h-PTH(1-34) (PTH receptor): 1.5-2 times; affinity for PTH receptors compared with known h-PTH(1-34) and [Nle8, Nle18]-h-PTH(1-34) (PTH receptors): stronger affinity |
| 2930 | 2480 | [Nle^8, Nle^18, Tyr^34 ]-h-PTH(1-34) | PTH / hormonal activity compared with natural h-PTH [1]: only approximately equal to that of natural h-PTH(1-34) |
| 5030 | 5000 | [Nle^8, Nle^18, Tyr^34 ]-h-PTH(1-34)NH2 | PTH activity after labelling (in words) (PTH receptor; after labelling with iodine-125): retains its PTH activity after labelling; h-PTH activity, times stronger than known h-PTH(1-34) and [Nle8, Nle18]-h-PTH(1-34) (PTH receptor): 1.5-2 times; biological activity in long term storage (PTH receptor; labelled peptide, long term storage): retains its biological activity in long term storage; affinity for PTH receptors compared with known h-PTH(1-34) and [Nle8, Nle18]-h-PTH(1-34) (PTH receptors): stronger affinity |

— patent publication US4656250A, “[Nle^8, Nle^18, Tyr^34 or Phe^34 ]-h-PTH peptide derivatives” (Toyo Jozo Kabushiki Kaisha, priority 1983, dated 1987)
